Data taken from patent publication US20230233650A1, “NOVEL FATTY ACID MODIFIED UROCORTIN 2 DERIVATIVES AND THE USES THEREOF” (Novo Nordisk A/S, priority 2021, published 2023).
Numbered stars: 1 amine (or outer) side, 2 acyl side, 3 side chain; on linkers, the order of the positions; unused ones are H or OH. Side chains are listed from the residue outwards. Peptide text beside a SMILES is read from it. * marks the point of attachment. C20 diacid = O=C(O)CCCCCCCCCCCCCCCCCCC(=O)*; γGlu = O=C(O)[C@H](CCC(=O)[*:2])N[*:1]; AEEA = NCCOCCOCC(=O)O

Molecular target: T1, Human CRF1 receptor (Homo sapiens, UniProt P34998)
T1 construct: host or cells: CHO-K1 (membrane preparation)
T1 sequence (P34998 24-415): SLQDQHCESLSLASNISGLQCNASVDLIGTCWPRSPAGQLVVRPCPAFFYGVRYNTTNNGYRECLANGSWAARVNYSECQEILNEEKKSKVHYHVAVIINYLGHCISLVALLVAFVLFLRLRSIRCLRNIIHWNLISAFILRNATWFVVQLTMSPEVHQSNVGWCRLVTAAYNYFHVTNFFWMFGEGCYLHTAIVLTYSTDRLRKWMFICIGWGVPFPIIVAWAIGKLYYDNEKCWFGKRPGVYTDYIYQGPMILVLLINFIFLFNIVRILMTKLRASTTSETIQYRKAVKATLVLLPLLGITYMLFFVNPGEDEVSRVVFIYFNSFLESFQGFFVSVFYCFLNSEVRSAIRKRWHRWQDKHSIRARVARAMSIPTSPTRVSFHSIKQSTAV
Assay: CRF1 receptor binding, scintillation proximity assay (SPA)
Details: displacement of [125I]-Sauvagine, CHO-K1 cell membranes
Protocol: The purpose of this example was to test the in vitro binding of the compounds of the invention to receptor subtypes CRF1 and CRF2. The in vitro binding of the compounds was determined in a scintillation proximity assay (SPA) as described below. The native, human Ucn1 and Ucn2 peptides are included as references. Scintillation Proximity Assay: […] Both cell lines were cultured at 37° C. in a humidified atmosphere with 5% CO2. […] Membranes were prepared by the following protocol: cultured cells were washed twice with cold Dulbecco’s phosphate buffered saline and detached using TrypLE™ (ThermoFisher) and transferred to tubes and centrifuged for 5 minutes at 1000 g at +4° C. Pellets were resuspended in ice cold homogenization buffer (20 mM Hepes pH 7.1, 5 mM MgCl2, 1 mg/ml Bacitracin with 2 complete EDTA-free protease inhibitor cocktail tablets/50 ml (Roche)) and then homogenized for 30 seconds using a Ultra-Turrax T25 tissue homogenizer (IKA) at medium speed. The homogenate was centrifuged at 35,000 g for 15 minutes at +4° C. using an ultracentrifuge, and the supernatant was discarded, and fresh homogenization buffer was added. Homogenization of the pellet was repeated a total of three times. The final pellet was resuspended in a few millilitres of homogenization buffer and protein concentration was determined using the Bradford method. The membrane preparation was transferred to cryotubes, and the aliquots were stored at -80° C. Each membrane preparation was subsequently titrated to give an appropriate window in the assay. Test procedure: […] Plates were sealed and incubated at 25° C. for 2 hours in a plate shaker set at 400 rpm and thereafter centrifuged at 1500 rpm for 10 minutes. SPA plates were let to stand at room temperature for about 16 hours prior to reading on microplate scintillation counter. Displacement of radioligand was measured as reduction in luminescence, and IC50 values were calculated by nonlinear regression analysis of four parameter sigmoidal dose-response curves.

Structure (SMILES)	IC50
CC[C@H](C)[C@H](NC(=O)[C@H](CCC(=O)O)NC(=O)[C@H](C)NC(=O)[C@H](CC(N)=O)NC(=O)[C@@H](NC(=O)[C@@H](NC(=O)[C@H](C)NC(=O)[C@H](CCC(N)=O)NC(=O)[C@H](CCC(=O)O)NC(=O)[C@H](CCCNC(=N)N)NC(=O)[C@H](C)NC(=O)[C@H](C)NC(=O)[C@H](CCCNC(=N)N)NC(=O)[C@H](C)NC(=O)[C@H](CCCNC(=N)N)NC(=O)[C@H](C)NC(=O)[C@H](CCC(N)=O)NC(=O)[C@H](CCC(=O)O)NC(=O)[C@H](CC(C)C)NC(=O)[C@H](CC(C)C)NC(=O)[C@@H](NC(=O)[C@H](CCC(N)=O)NC(=O)[C@H](CC(C)C)NC(=O)[C@H](CC(C)C)NC(=O)CNC(=O)[C@@H](NC(=O)[C@@H]1CCCN1C(=O)[C@@H](NC(=O)[C@H](CC(=O)O)NC(=O)[C@H](CC(C)C)NC(=O)[C@H](CO)NC(=O)[C@H](CC(C)C)NC(=O)[C@@H](NC(=O)[C@@H](NC(=O)[C@@H](N)CCCCNC(=O)COCCOCCNC(=O)COCCOCCNC(=O)CC[C@H](NC(=O)CC[C@H](NC(=O)CC[C@H](NC(=O)CCCCCCCCCCCCCCCCCCC(=O)O)C(=O)O)C(=O)O)C(=O)O)[C@@H](C)CC)C(C)C)C(C)C)[C@@H](C)CC)[C@@H](C)CC)[C@@H](C)O)[C@@H](C)O)C(=O)N[C@@H](CC(C)C)C(=O)N[C@@H](C)C(=O)N[C@@H](CCC(=O)O)C(=O)N[C@H](C(N)=O)C(C)C [Compound 3] (H-K([AEEA-AEEA-γGlu-γGlu-γGlu-C20 diacid])IVLSLDVPIGLLQILLEQARARAAREQATTNAEILAEV-NH2)	> 1 µM
CC[C@H](C)[C@H](NC(=O)[C@H](CCC(=O)O)NC(=O)[C@H](C)NC(=O)[C@H](CC(N)=O)NC(=O)[C@@H](NC(=O)[C@@H](NC(=O)[C@H](C)NC(=O)[C@H](CCC(N)=O)NC(=O)[C@H](CCC(=O)O)NC(=O)[C@H](CCCNC(=N)N)NC(=O)[C@H](C)NC(=O)[C@H](C)NC(=O)[C@H](CCCNC(=N)N)NC(=O)[C@H](C)NC(=O)[C@H](CCCNC(=N)N)NC(=O)[C@H](C)NC(=O)[C@H](CCC(N)=O)NC(=O)[C@H](CCC(=O)O)NC(=O)[C@H](CC(C)C)NC(=O)[C@H](CC(C)C)NC(=O)[C@@H](NC(=O)[C@H](CCC(N)=O)NC(=O)[C@H](CC(C)C)NC(=O)[C@H](CC(C)C)NC(=O)CNC(=O)[C@@H](NC(=O)[C@@H]1CCCN1C(=O)[C@@H](NC(=O)[C@H](CC(=O)O)NC(=O)[C@H](CC(C)C)NC(=O)[C@H](CO)NC(=O)[C@H](CC(C)C)NC(=O)[C@@H](NC(=O)[C@@H](NC(=O)[C@@H](N)CCCCNC(=O)COCCOCCNC(=O)COCCOCCNC(=O)CC[C@H](NC(=O)CC[C@H](NC(=O)CC[C@H](NC(=O)CCCCCCCCCCCCCCCCCCC(=O)O)C(=O)O)C(=O)O)C(=O)O)[C@@H](C)CC)C(C)C)C(C)C)[C@@H](C)CC)[C@@H](C)CC)[C@@H](C)O)[C@@H](C)O)C(=O)N[C@@H](CC(C)C)C(=O)N[C@@H](CCC(=O)O)C(=O)N[C@@H](CCCNC(=N)N)C(=O)N[C@H](C(N)=O)C(C)C [Compound 4] (H-K([AEEA-AEEA-γGlu-γGlu-γGlu-C20 diacid])IVLSLDVPIGLLQILLEQARARAAREQATTNAEILERV-NH2)	> 1 µM
